Source: paper PMC7948405, “Small-molecule control of neurotransmitter sulfonation” (The Journal of Biological Chemistry, 2020)

Molecular target: T1, SULT1A3 in HME(+) cells (Homo sapiens, UniProt P0DMM9)
T1 construct: HME cells were transfected with plasmid containing the coding region of either SULT1A3 or a negative control; expressed in transfected cells
Experiment: Ex vivo inhibition of dopamine sulfate (DPS) synthesis in SULT1A3-transfected HME(+) cells
Format: cell-based
Details: 100 μM DP, 24 h, parentheses 1 SD
Procedure: A stable transfectant cell line was constructed to test the ability of CMP12 and CMP13 to suppress catecholamine sulfonation in cultured human cells. […] HME cells were transfected with plasmid containing the coding region of either SULT1A3 or a negative control ([14]) (see Experiment and Transfection protocol). Transfectant isolates were grown to near confluence and harvested, and cell extracts were prepared (see Experiment). SULT1A3 levels in the extracts were assessed by determining SULT activity per μg extract (see Experiment). Activity in extracts of the SULT1A3-positive transfectants ranged from 1 to 85 times the levels present in negative-control extracts. […] Consequently, a transfectant, 1A3(+) with extract activity 42 times that of the negative-control isolate, 1A3(-), was selected for further experiments.
To establish conditions for ex vivo inhibition studies, the DP concentration and time dependence of dopamine sulfate (DPS) synthesis by 1A3(+) cells were assessed. DP and its metabolites (DPS, 3-methoxytyramine [3-MT], 3,4-dihydroxyphenylacetic acid [DOPAC], and homovanillic acid [HVA]) are baseline separable using HPLC and can be quantitated optically at […] (see Experiment and Fig. S1). Only DP and DPS were detected in the cell media, and together, they constituted >95% of the DP initially added to the media. The DPS concentration in the 1A3(+) media at 24 h after DP addition is plotted as a function of DP concentration in Fig. 6B. As is evident, the dose-response curve is linear at concentrations as high as 200 μM DP.
Figure 6 HME(+)-cell DPS synthesis and inhibition. A, Time dependence of DPS formation. DP was added at 100 μM to the growth medium of 60 to 70% confluent HME(+)-cells, and the DPS concentration in the medium was determined at the indicated time intervals. B, DP-concentration dependence of DPS synthesis. The Y-axis indicates the concentration of DPS in the growth media 24 h after DP addition. The X-axis indicates the DP concentration added at t = 0 to the growth medium of 60 to 70% confluent HME(+)-cells. […] The levels of DP (red dots) and DPS (blue dots) were determined 24 h after DP addition. […] A–D, dopamine metabolites were separated and quantitated using HPLC (see Experiment); each data point represents the average of three independent determinations, and the sum of DP and DPS concentrations was ≥95% of the total added DP. […]
Transfectants are grown to 60 to 70% confluency at 37 °C in 12-well plates in the MEM containing neomycin (400 μg ml^−1). […] DP metabolite peaks are baseline separated and detected optically at 280 nm (see Fig. S1). Standard curves were used to quantitate each metabolite (Ɛ280 = 3.2 and 2.8 mM^-1 cm^-1 for DP and DPS, respectively). DPS was detected only in the media of cells that express SULT1A3. […]

T1 sequence (P0DMM9 whole entry): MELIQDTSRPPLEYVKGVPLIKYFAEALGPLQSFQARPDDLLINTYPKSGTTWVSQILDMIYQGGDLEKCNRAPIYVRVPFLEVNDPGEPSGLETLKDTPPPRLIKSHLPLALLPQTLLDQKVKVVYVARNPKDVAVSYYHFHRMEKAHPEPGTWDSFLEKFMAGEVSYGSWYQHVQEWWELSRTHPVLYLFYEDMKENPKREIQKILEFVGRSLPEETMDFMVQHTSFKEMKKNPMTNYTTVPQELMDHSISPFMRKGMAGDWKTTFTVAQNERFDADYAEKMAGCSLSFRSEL

| % Inhibition at saturation | IC50 [nM] | Structure (SMILES) |
| --- | --- | --- |
| 95 (2) % | 12 | CC(C)Cc1ccc2cc(/C=C/C(N)=O)cnc2n1 [CMP13] |
| 84 (3) % | 260 | CC(C)Cc1ccc2cc(CCC(N)=O)ccc2n1 [CMP12] |
